Data set [1] in a line: diffusion of drug through egg shell membrane in diffusion cell. The format is in vitro ADME. The method, then:
A diffusion cell was partitioned by an egg shell membrane. […] While maintaining a temperature of 37° C., the two liquid phases were stirred, and after a lapse of a predetermined period of time, the amount of the drug which diffused into the acceptor side from the donor side was measured.
The diffusion cell used was a glass cell for use in an ordinary diffusion experiment. The egg shell was obtained by removing the contents of an egg from the shell, immersing the shell in 0.7% acetic acid for 30 minutes, subjecting it to ultrasonication for 15 minutes, and carefully peeling the membrane from the shell.
A control test was carried out in the same way as above except that only the drug was added to the donor side.
The amount of the drug which diffused to the acceptor side was measured 30 minutes later, and compared with the control.
The relative amount of the drug diffused from the drug-penetration enhancer system was calculated by taking the amount of the drug diffused from the control donor side as 100. […] Bull., Vol. 20, p.

The test system of the next data set is carrageenan edema. Description: carrageenan edema inhibiting effect of betamethasone valerate ointments. Format: in vivo, rat. Conditions: Table 5, betamethasone valerate ointment with penetration enhancer. The method, then:
An ointment was prepared from 0.15 part by weight of betamethasone valerate, 9.85 parts by weight of compound (168) and 90 parts by weight of the hydrophilic ointment.
In accordance with the method of R. Passarella et al. [Argneim. Forsch 30, (I), Nr. 4, 647-651 (1980)], the carrageenan edema inhibiting effect of the above ointment was examined. Specifically, 0.1 ml of a 1% carrageenan suspension in 0.9% NaCl solution was injected into the tip of the right leg of a rat (body weight 150-175 g). The foot volume was measured immediately after administration of carrageenan and 3, 5, and 6 hours after the administration by means of a mercury displacement device. 0.5, 1 and 2 hours after the administration of carrageenan, 100 mg of the ointment was well […] into each of the sites which underwent inflammation.
Various ointments were prepared from 0.15 part by weight of betamethasone valerate, […] of the various penetration enhancers shown in Table 5, and 85 parts by weight of the hydrophilic ointment, and tested in the same way as in Example 23.
On the technique in general: Carrageenan injected into the paw causes an acute inflammation.

For data set [2], the system named is eye (cornea, iris, conjunctiva). Description: primary eye irritation (Draize) in rabbits. The format is in vivo, white native male rabbits. Particulars: average of three rabbits. On the procedure:
enhancers of this invention shown in Table 17 was applied dropwise to one eye of white native male rabbits (body weight 2.0 to 3.0 kg; 3 per group) which, it had been ascertained, were free from any trouble at the cornea, iris and conjunctiva. Nothing was applied to the other eye. Thus, irritation of the absorption aid to the mucous membrane of the eyes were examined, and scores were calculated in accordance with the Draize's eye irritation evaluating method [Association of Foods, "Drugs and Cosmetics" (1957)].
As a control, sodium laurylsulfate, a kind of surface-active agent, was evaluated in the same way, and the results are also shown in Table 17.

Data set [3] in a line: concentration of indomethacin in rat blood after application of ointment to the back. Particulars: rat, in vivo. The method, then:
An ointment was prepared from 1 part by weight of indomethacin, 10 parts by weight of compound (168) and 89 parts by weight of a hydrophilic ointment (composed of 250 parts of white Vaseline, 220 parts by weight of stearyl alcohol, 120 parts by weight of propylene glycol, 15 parts by weight of sodium laurylsulfate, 0.25 part by weight of ethyl p-hydroxybenzoate, 0.15 part by weight of propyl p-hydroxybenzoate and a small amount of purified water). The back of a rat (body weight about 250 g) was cut by an electric hair-clipper, and 100 mg of the resulting ointment was applied by a finger to a circular unhaired portion, 4 cm in diameter. The blood was drawn from the tail of the rat periodically, and the concentration of indomethacin in the blood was determined periodically by high-performance liquid chromatography.
Various ointments were prepared from 1 part by weight of indomethacin, 10 parts of each of various penetration enhancers shown in Table 2 and the hydrophilic ointment, and tested as in Example 1.

[4] abbreviates: 30 minutes, drug 0.05% with compound (168) 1.0% on donor side, drug alone = 100, 37° C.

Where two headings read alike, the source gives them in different places.

The values below come from patent US4746675A, “External pharmaceutical composition” (Teijin Limited, priority 1983, dated 1988).

Consider `COC1=CC(=O)C[C@@H](C)[C@]12Oc1c(Cl)c(OC)cc(OC)c1C2=O` [Griseofulvin], for which the “Relative amount of the drug diffused” value in data set [1] amounted to 209.

For `C[C@]12CC[C@@H]3c4ccc(O)cc4CC[C@H]3[C@@H]1CC[C@@H]2O` [Estradiol], the “Relative amount of the drug diffused” value in data set [1] is 181.

Consider `C[C@](N)(Cc1ccc(O)c(O)c1)C(=O)O` [Methyldopa], for which the “Relative amount of the drug diffused” value in data set [1] (setting [4]) came out at 137.

With `Nc1ccc(C(=O)O)cc1` [p-Aminobenzoic acid], the “Relative amount of the drug diffused” value in data set [1] stood at 122.

Consider `Cc1ccc(Cl)c(OCC(O)CNC(C)(C)C)c1` (stereo not shown) [Bupranolol], for which, in data set [1], the “Relative amount of the drug diffused” value is reported as 141.

As for `O=C(O)c1cc(=O)c2c(OCC(O)COc3cccc4oc(C(=O)O)cc(=O)c34)cccc2o1` [Sodium cromoglicate], the “Relative amount of the drug diffused” value in data set [1] is listed as 159.

Consider `C=C1/C(=C\C=C2/CCC[C@]3(C)[C@@H]([C@H](C)CCCC(C)(C)O)CC[C@@H]23)C[C@@H](O)C[C@@H]1O` [1,25-Dihydroxyvitamin D3], for which, in data set [1], the “Relative amount of the drug diffused” value worked out at 123.

`CN(C)CCCN1c2ccccc2Sc2ccc(Cl)cc21` [Chlorpromazine]: the “Relative amount of the drug diffused” value in data set [1] (setting [4]) turned out to be 133.

Consider `CC(=O)OCC1=C(C(=O)O)N2C(=O)[C@@H](NC(=O)Cc3cccs3)[C@H]2SC1` [Cephalothin], for which the “Relative amount of the drug diffused” value in data set [1] (setting [4]) is 139.

Turning to `CCN(CC)CCOC(=O)c1ccc(N)cc1` [Procaine], in data set [1] (setting [4]), the “Relative amount of the drug diffused” value came to 149.

`CN1C(C(=O)Nc2ccccn2)=C(O)c2ccccc2S1(=O)=O` [Piroxicam]: the “Relative amount of the drug diffused” value in data set [1] worked out at 177.

Turning to `CN1C(=O)CN=C(c2ccccc2)c2cc(Cl)ccc21` [Diazepam], the “Relative amount of the drug diffused” value in data set [1] (setting [4]) stood at 144.

With `COc1ccc2c(c1)c(CC(=O)O)c(C)n2C(=O)c1ccc(Cl)cc1` [Indomethacin], the “Relative amount of the drug diffused” value in data set [1] (setting [4]) was 217.

iso-Sorbitol nitrate: in data set [1] (setting [4]), the “Relative amount of the drug diffused” value came out at 128.

For `CCCCCCCC(=O)OCC(COC(=O)[C@@H]1CCC(=O)N1)OC(=O)CCCCCCC` (stereo partly shown) [Compound (162), 2,3-dioctanoyloxy-1-pyroglutamyloxypropane], the “Percentage inhibition vs. control” value was 16.1% with carrageenan edema (3 hrs), 34.0% in the data set on carrageenan edema (5 hrs) and 34.2% with carrageenan edema (6 hrs). In addition, the “Primary irritation score, Conjunctiva” value in data set [2] (2.4% soln, 1 hour) is 3.3; in data set [2] (2.4% soln, 3 hours), 2.0; in data set [2] (2.4% soln, 6 hours) it was 2.0; in data set [2] (2.4% soln, 24 hours), 0; in data set [2] (2.4% soln, 48 hours) it was 0; in data set [2] (2.4% soln, 72 hours), 0. Besides, the “Primary irritation score, Conjunctiva” value in data set [2] (2.4% soln, 96 hours) is 0; in data set [2] (2.4% soln, 168 hours), 0. Moreover, the “Primary irritation score, Cornea” value was found to be 0 in data set [2] (2.4% soln, 1 hour); 0 in data set [2] (2.4% soln, 3 hours); 0 in data set [2] (2.4% soln, 6 hours); 0 in data set [2] (2.4% soln, 24 hours); 0 in data set [2] (2.4% soln, 48 hours); 0 in data set [2] (2.4% soln, 72 hours). Moreover, the “Primary irritation score, Cornea” value is listed as 0 in data set [2] (2.4% soln, 96 hours) and 0 in data set [2] (2.4% soln, 168 hours). Also, the “Primary irritation score, Iris” value came to 0 in data set [2] (2.4% soln, 1 hour); 0 in data set [2] (2.4% soln, 3 hours); 0 in data set [2] (2.4% soln, 6 hours); 0 in data set [2] (2.4% soln, 24 hours); 0 in data set [2] (2.4% soln, 48 hours); 0 in data set [2] (2.4% soln, 72 hours). Also, the “Primary irritation score, Iris” value in data set [2] (2.4% soln, 96 hours) is reported as 0; in data set [2] (2.4% soln, 168 hours), 0. Also, the “Primary irritation score, Total” value in data set [2] (2.4% soln, 1 hour) is 3.3; in data set [2] (2.4% soln, 3 hours), 2.0; in data set [2] (2.4% soln, 6 hours), 2.0; in data set [2] (2.4% soln, 24 hours), 0; in data set [2] (2.4% soln, 48 hours), 0; in data set [2] (2.4% soln, 72 hours) it was 0. The “Primary irritation score, Total” value in data set [2] (2.4% soln, 96 hours) was found to be 0; in data set [2] (2.4% soln, 168 hours) it was 0.

For the compound `CC1(C)O[C@@H]2C[C@H]3[C@@H]4CCC5=CC(=O)C=C[C@]5(C)[C@@]4(F)[C@@H](O)C[C@]3(C)[C@]2(C(=O)CO)O1` [Triamcinolone acetonide], in data set [1] (setting [4]), the “Relative amount of the drug diffused” value was 214.

As for `CCCCCCCCCCCCOCC(O)COC(=O)[C@@H]1CCC(=O)N1` (stereo partly shown) [Compound (108), 3-dodecyloxy-2-hydroxy-1-pyroglutamyloxypropane], the figures for the “Percentage inhibition vs. control” value in the data set with carrageenan edema (3 hrs), in the data set with carrageenan edema (5 hrs) and in the data set on carrageenan edema (6 hrs) were 20.1%, 36.7% and 36.7%, respectively. Also, the “Primary irritation score, Conjunctiva” value in data set [2] (0.8% soln, 1 hour) is reported as 2.0; in data set [2] (0.8% soln, 3 hours), 2.0; in data set [2] (0.8% soln, 6 hours), 1.3; in data set [2] (0.8% soln, 24 hours) it was 0; in data set [2] (0.8% soln, 48 hours) it was 0; in data set [2] (0.8% soln, 72 hours), 0. Further, the “Primary irritation score, Conjunctiva” value in data set [2] (0.8% soln, 96 hours) stood at 0; in data set [2] (0.8% soln, 168 hours), 0. Moreover, the “Primary irritation score, Cornea” value was 0 in data set [2] (0.8% soln, 1 hour); 0 in data set [2] (0.8% soln, 3 hours); 0 in data set [2] (0.8% soln, 6 hours); 0 in data set [2] (0.8% soln, 24 hours); 0 in data set [2] (0.8% soln, 48 hours); 0 in data set [2] (0.8% soln, 72 hours). Also, the “Primary irritation score, Cornea” value in data set [2] (0.8% soln, 96 hours) is 0; in data set [2] (0.8% soln, 168 hours), 0. The “Primary irritation score, Iris” value is 0 in data set [2] (0.8% soln, 1 hour); 0 in data set [2] (0.8% soln, 3 hours); 0 in data set [2] (0.8% soln, 6 hours); 0 in data set [2] (0.8% soln, 24 hours); 0 in data set [2] (0.8% soln, 48 hours); 0 in data set [2] (0.8% soln, 72 hours). Moreover, the “Primary irritation score, Iris” value in data set [2] (0.8% soln, 96 hours) amounted to 0; in data set [2] (0.8% soln, 168 hours), 0. Also, the “Primary irritation score, Total” value in data set [2] (0.8% soln, 1 hour) was found to be 2.0; in data set [2] (0.8% soln, 3 hours) it was 2.0; in data set [2] (0.8% soln, 6 hours), 1.3; in data set [2] (0.8% soln, 24 hours) it was 0; in data set [2] (0.8% soln, 48 hours), 0; in data set [2] (0.8% soln, 72 hours), 0. Further, the “Primary irritation score, Total” value in data set [2] (0.8% soln, 96 hours) was determined as 0; in data set [2] (0.8% soln, 168 hours), 0.

Turning to `O=C1CC[C@@H](C(=O)O)N1` [Pyroglutamic acid, pyroglutamic acid], the “Concentration of indomethacin in the blood” value is 1400 ng/mL in data set [3] (60 min); 2200 ng/mL in data set [3] (180 min); 2000 ng/mL in data set [3] (300 min); 1800 ng/mL in data set [3] (420 min); 700 ng/mL in data set [3] (1440 min).

For `O=c1[nH]cc(F)c(=O)[nH]1` [5-Fluorouracil], the “Relative amount of the drug diffused” value in data set [1] (setting [4]) came out at 208.

For Urokinase, in data set [1] (setting [4]), the “Relative amount of the drug diffused” value was 115.

As for `O=C(O)c1ccccc1O` [Salicylic acid], the “Relative amount of the drug diffused” value in data set [1] (setting [4]) is recorded as 203.

Consider `CN1[C@@H]2C[C@@H](OC(=O)[C@H](CO)c3ccccc3)C[C@H]1[C@@H]1O[C@@H]12` [Scopolamine], for which the “Relative amount of the drug diffused” value in data set [1] (setting [4]) is reported as 116.
